Measured values published in ChEMBL document CHEMBL5338789, “Structure-Based Development of Isoform-Selective Inhibitors of Casein Kinase 1ε vs Casein Kinase 1δ” (J Med Chem, 2023).
pEC50, pIC50: −log10 of the molar value. Each block holds one compound with its values, some of them ahead of it. Activity calls are given as the source filed them. No cut-off for these calls is given here.

Legend:
[1] = biological target: T1, Casein kinase I isoform delta (Homo sapiens, UniProt P48730); experiment: Inhibition of CK1delta (unknown origin) using Light-TopoIla(Thr1342) peptide as substrate incubated for 10 mins in presence of ATP by TR-FRET assay
Target sequence in this assay (P48730 whole entry, canonical isoform): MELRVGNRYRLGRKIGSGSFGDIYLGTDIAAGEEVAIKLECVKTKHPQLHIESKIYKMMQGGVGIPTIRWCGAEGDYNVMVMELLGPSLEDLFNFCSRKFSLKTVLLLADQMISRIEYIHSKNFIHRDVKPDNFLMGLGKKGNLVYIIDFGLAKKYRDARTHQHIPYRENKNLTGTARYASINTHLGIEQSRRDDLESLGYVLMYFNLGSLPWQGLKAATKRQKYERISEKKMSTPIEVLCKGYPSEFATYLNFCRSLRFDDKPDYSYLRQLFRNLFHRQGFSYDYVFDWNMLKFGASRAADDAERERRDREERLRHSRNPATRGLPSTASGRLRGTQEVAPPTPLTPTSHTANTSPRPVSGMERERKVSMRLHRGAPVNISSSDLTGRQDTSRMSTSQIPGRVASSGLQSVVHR

[2] = tested on: U2OS; experiment: Antiproliferative activity against human U2OS cells assessed as reduction in cell proliferation incubated for 72 hrs by Cell Titer Glo assay; type: functional, cell-based
[3] = tested on: 5637; experiment: Antiproliferative activity against human 5637 cells assessed as reduction in cell proliferation incubated for 72 hrs by Cell Titer Glo assay; type: functional, cell-based; conditions: Homo sapiens, 5637, 72 h
[4] = tested on: T-24; experiment: Antiproliferative activity against human T24 cells assessed as reduction in cell proliferation incubated for 72 hrs by Cell Titer Glo assay; type: functional, cell-based; conditions: T-24, 72 h
[5] = tested on: UMUC3; experiment: Antiproliferative activity against human UMUC3 cells assessed as reduction in cell proliferation incubated for 72 hrs by Cell Titer Glo assay; type: functional, cell-based; conditions: UMUC3, 72 h
[6] = biological target: T1, Casein kinase I isoform delta; experiment: Inhibition of N-terminal His-tagged CK1delta (unknown origin) expressed in Escherichia coli using Light-TopoIla(Thr1342) peptide as substrate at 10 uM incubated for 10 mins in presence of ATP by TR-FRET assay
Target sequence in this assay (P48730 whole entry, looked up, canonical isoform): as the sequence (P48730 whole entry, canonical isoform) above

[7] = biological target: T1, Casein kinase I isoform delta; experiment: Inhibition of CK1delta (unknown origin)
Target sequence in this assay (P48730 whole entry, canonical isoform): as above

[8] = biological target: Casein kinase I isoform epsilon (Homo sapiens, UniProt P49674); experiment: Inhibition of CK1epsilon (unknown origin)
Sequence of Casein kinase I isoform epsilon (P49674 whole entry, canonical isoform): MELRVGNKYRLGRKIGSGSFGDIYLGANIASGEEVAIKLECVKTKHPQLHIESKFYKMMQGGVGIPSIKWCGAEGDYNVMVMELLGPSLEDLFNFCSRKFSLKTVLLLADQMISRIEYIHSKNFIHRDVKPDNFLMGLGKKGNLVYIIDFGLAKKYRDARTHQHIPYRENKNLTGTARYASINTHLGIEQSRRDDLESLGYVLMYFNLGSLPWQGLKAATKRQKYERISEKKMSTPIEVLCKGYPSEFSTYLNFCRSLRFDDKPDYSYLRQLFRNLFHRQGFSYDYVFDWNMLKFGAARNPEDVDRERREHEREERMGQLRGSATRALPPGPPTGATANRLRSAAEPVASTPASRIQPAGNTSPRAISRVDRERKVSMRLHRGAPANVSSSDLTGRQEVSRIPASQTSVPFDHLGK

pIC50 [1]: < 5.00
SMILES: Fc1cccc(Cn2cnc3c(NCc4nc5c(F)c(F)ccc5[nH]4)nc(N4CCOCC4)nc32)c1

pEC50 [2]: 8.05
SMILES: Fc1cccc(-n2cnc3c(NCc4nc5c(F)c(F)ccc5[nH]4)nc(N4CCOCC4)nc32)c1
pEC50 [3]: 8.22
pEC50 [4]: 8.10
pEC50 [5]: 7.59

pIC50 [1]: < 5.00
SMILES: Fc1ccc2[nH]c(CNc3nc(N4CCOCC4)nc4c3ncn4CCc3cccc(C(F)(F)F)c3)nc2c1F

inhibition [6]: inactive
pIC50 [1]: < 5.00
SMILES: Fc1ccc2[nH]c(CNc3nc(N4CCOCC4)nc4c3ncn4CCc3ccc(C(F)(F)F)cc3)nc2c1F

inhibition [6]: inactive
pIC50 [1]: < 5.00
SMILES: CC(C)Oc1ccc(-n2cnc3c(NCc4nc5c(F)c(F)ccc5[nH]4)nc(N4CCOCC4)nc32)cc1

pIC50 [1]: < 5.00
SMILES: Fc1ccc2[nH]c(CNc3nc(N4CCOCC4)nc4c3ncn4Cc3ccc4ccccc4c3)nc2c1F

pEC50 [2]: 6.43
pIC50 [1]: < 5.00
SMILES: Fc1ccc2[nH]c(CNc3nc(N4CCOCC4)nc4c3ncn4-c3ccc4ccccc4c3)nc2c1F
pEC50 [3]: 6.50
pEC50 [4]: 6.58
pEC50 [5]: 6.27

pIC50 [1]: < 5.00
SMILES: Fc1ccc2[nH]c(CNc3nc(N4CCOCC4)nc4c3ncn4-c3ccc4ncsc4c3)nc2c1F

pIC50 [1]: < 5.00
SMILES: N#Cc1ccc(CCn2cnc3c(NCc4nc5c(F)c(F)ccc5[nH]4)nc(N4CCOCC4)nc32)cc1

inhibition [6]: inactive
pIC50 [1]: < 5.00
SMILES: Fc1ccc2[nH]c(CNc3nc(N4CCOCC4)nc4c3ncn4CCc3cccc(Cl)c3)nc2c1F

pIC50 [1]: < 5.00
SMILES: Fc1ccc2[nH]c(CNc3nc(N4CCOCC4)nc4c3ncn4CCc3cccc(Br)c3)nc2c1F

pIC50 [1]: < 5.00
SMILES: CCOc1ccc(-n2cnc3c(NCc4nc5c(F)c(F)ccc5[nH]4)nc(N4CCOCC4)nc32)cc1

pIC50 [7]: 7.38
pIC50 [8]: 7.48
SMILES: O=C(Nc1nc2cc(Cl)c(F)cc2[nH]1)c1coc(NC(=O)c2ccccc2OC(F)(F)F)n1

pEC50 [2]: 6.79
SMILES: COc1ccc(-n2cnc3c(NCc4nc5c(F)c(F)ccc5[nH]4)nc(N4CCOCC4)nc32)cc1
pEC50 [3]: 6.97
pEC50 [4]: 7.02
pEC50 [5]: 5.24

pIC50 [1]: < 5.00
SMILES: Fc1cc(F)cc(CCn2cnc3c(NCc4nc5c(F)c(F)ccc5[nH]4)nc(N4CCOCC4)nc32)c1

pIC50 [1]: < 5.00
SMILES: Fc1cccc(CCn2cnc3c(NCc4nc5c(F)c(F)ccc5[nH]4)nc(N4CCOCC4)nc32)c1

pIC50 [1]: < 5.00
SMILES: Fc1ccc2[nH]c(CNc3nc(N4CCOCC4)nc4c3ncn4Cc3cccc4ccccc34)nc2c1F

pIC50 [1]: < 5.00
SMILES: Fc1ccc2[nH]c(CNc3nc(N4CCOCC4)nc4c3ncn4-c3ccc4c(c3)OCCO4)nc2c1F
